From patent US10398717B2, “Pharmaceutical composition based on a hepatoprotector and prebiotic, and method for administrating” (priority 2008, dated 2019)

Columns and labels:
Sprague-Dawley rats = experiment: High-fat diet induced non-alcoholic hepatitis model; type: in vivo; conditions: liver histology, day 121; oral administration during 90 days
Experimental: The control group (Group 4, n=14 in each group) was administered an equal amount of 1% methyl cellulose suspension. The animals were monitored for 120 days on the background of continuous pathology induction. Administration of drugs began after 30 days from the beginning of diet supplementation (10 % lard and 2% cholesterol for each 100 g feed). The effect of therapy was assessed by biochemical parameters (ALT, AST, triglycerides) and liver histology. On day 121, animals were euthanized and liver histology was performed. In the control group, […] of animals developed steatosis.

[1] = test system: patients with diffuse liver diseases (cirrhosis, hepatitis) with intrhepatic cholestasis syndrome; conditions: human, in vivo; cited from earlier work
colon contents = conditions: in vivo; cited from earlier work
[2] = cited from earlier work

## C[C@H](CCC(=O)O)[C@H]1CC[C@H]2[C@@H]3[C@@H](O)C[C@@H]4C[C@H](O)CC[C@]4(C)[C@H]3CC[C@]12C [Group 3, ursodeoxycholic acid]
Sprague-Dawley rats
  rats in which signs of steatosis, ballooning, and inflammation improved: 50%

## C[S+](CC[C@H](N)C(=O)[O-])C[C@H]1O[C@@H](n2cnc3c(N)ncnc32)[C@H](O)[C@@H]1O (stereo partly drawn) [ademethionine, S-adenosil-L-metionine]
[1]
  duration of antiasthenic, anticholestatic and hepatoprotective effects after the treatment was stopped: 3 months
  patients with decrease of intensity of asthenic syndrome: 46%
  patients with disappearance of asthenic syndrome: 54%

## OC[C@H]1O[C@@H](O[C@@H]2[C@@H](CO)O[C@](O)(CO)[C@H]2O)[C@H](O)[C@@H](O)[C@H]1O [lactulose, 4-0-D-galactopyranosyl-D-fructose]
Colon contents
  increase of volume of colon contents: about 30%
[2]
  solubility in water: very soluble in water
